Experimental data: patent US20220213119A1, “THIENOHETEROCYCLIC DERIVATIVE, PREPARATION METHOD THEREFOR AND MEDICAL USE THEREOF” (Jiangsu Hengrui Medicine Ca, Lid., priority 2019, published 2022)

Legend:
ERK2 = biological target: T1, ERK2 (Homo sapiens, UniProt P28482); experiment: ERK2 enzyme activity test (ADP-Glo Kinase Assay); type: biochemical; details: chemiluminescence
T1 construct: purchased R&D 1230-KS-010
Procedure: The purpose of this experiment is to detect the inhibitory ability of the compounds on the ERK2 enzyme activity and evaluate the activity of the compounds in vitro according to IC50. The ADP-Glo™ Kinase Assay Kit was used in this experiment. Under the action of enzyme, the substrate was phosphorylated and ADP was produced at the same time. The ADP-Glo Reagent was added to remove unreacted ATP in the reaction system. The kinase detection reagent was used to detect the ADP produced by the reaction. In the presence of the compound, the inhibition rate of the compound was calculated by measuring the signal value.
Enzyme and substrate preparation: ERK2 (1230-KS-010, R&D) and substrate (Custom peptides, Gill Biochemical) were prepared to be 0.75 ng/μl and 1500 μM in the buffer (40 mM Tris, 20 mM MgCl2, 0.1 mg/mL BSA, 50 μM DTT). The enzyme solution and substrate solution were then prepared into a mixed solution at a volume ratio of 2:1 for later use. ATP was diluted to 500 μM with the buffer. The compounds were dissolved in DMSO (dimethyl sulfoxide, Shanghai Titan Scientific Co., Ltd.) to prepare a stock solution with an initial concentration of 20 mM, and then Bravo was used to prepare solutions of the compounds. Finally, a 3 μL of a mixed solution of enzyme and substrate, and 1 μL of different concentrations of the compound (the initial concentration is 50 μM, 4-fold dilution) were added to each well of the 384-well plate, and the plate was incubated at 30° C. for 10 minutes, and finally 1 μL of 500 μM ATP solution was added to each well, and the plate was incubated at 30° C. for 2 hours. Then 5 μL of ADP-Glo was added, and the plate was incubated at 30° C. for 40 minutes. Then 10 μL of Kinase detection buffer was added, and the plate was incubated at 30° C. for 40 minutes. The 384-well plate was taken out and placed in a microplate reader (BMG labtech, PHERAstar FS), and the chemiluminescence was measured by the microplate reader.
(§1) The data were processed and analyzed with Microsoft Excel, Graphpad Prism 5.

Colo205 cells = experiment: In vitro proliferation inhibition test on Colo205 tumor cells (CellTiter-Glo); type: cell-based; details: Homo sapiens, COLO 205, 72 h; Colo205 cell proliferation, 3 days of culture, CTG
Procedure: The purpose of this experiment is to test the inhibitory activity of the compounds on the proliferation of Colo205 cells (CCL-222, ATCC) in vitro. The cells were treated with different concentrations of compounds in vitro. After 3 days of culture, the cell proliferation was detected using CTG (CellTiter-Glo® Luminescent Cell Viability Assay, Promega, catalog number: G7573) reagent. The in vitro activity of the compounds was evaluated according to the IC50 value.
In the following, taking the in vitro proliferation inhibition test method of Colo205 cells as an example, the method in the present disclosure for testing the in vitro proliferation inhibitory activity of the compounds of the present disclosure is described. This method is also applicable to, but not limited to, the in vitro proliferation inhibitory activity test on other tumor cells.
Colo205 cells were digested, centrifuged and then resuspended. The single cell suspension was mixed well, and the density of viable cells was adjusted to 5.0×10^4 cells/ml with cell culture medium (RPMI1640+2% FBS), and 95 μl/well was added to a 96-well cell culture plate. Only 100 μl medium was added to the peripheral wells of the 96-well plate. The culture plate was incubated in an incubator for 24 hours (37° C., 5% CO2).
The compound was dissolved in DMSO (dimethyl sulfoxide, Shanghai Titan Scientific Co., Ltd.) and prepared into a stock solution with an initial concentration of 20 mM. The initial concentration of the small molecule compound is 2 mM, and then 4-fold diluted into to 9 points, and the tenth point is DMSO. Another 96-well plate was taken, 90 μl of cell culture medium (RPMI1640+2% FBS) was added to each well, then 10 μl of different concentrations of the test sample was added to each well, the mixture was mixed well, and then 5 μl of different concentrations of the test sample was added to the cell culture plate, and each sample has two duplicate holes. The culture plate was incubated in the incubator for 3 days (37° C., 5% CO2). The 96-well cell culture plate was taken out, 50 μl CTG solution was added to each well, and the plate was incubated for 10 minutes at room temperature. In a microplate reader (BMG labtech, PHERAstar FS), chemiluminescence was measured with the microplate reader.
as §1

[1] = Pharmacokinetics assay in mice; type: in vivo; details: mouse, po, C57 mice (female), intragastric, 2 mg/kg, plasma; for Vd/F: read-out: Apparent distribution volume Vz/F; for AUC: read-out: Area under curve AUC; for CL/F: read-out: Clearance CLz/F; for half-life: read-out: Half Life T1/2 (converted); for Cmax: read-out: Plasma Concentration Cmax; for MRT: read-out: Residence Time MRT
Procedure: Mice were used as the test animal. The drug concentration in plasma at different time points was determined by LC/MS/MS method after administration of compound 3-P2, compound 4-P2, compound 9-P2, compound 10-P2, compound 12 and compound 15. The pharmacokinetic behavior of the compounds of the present disclosure in mice was studied, and the pharmacokinetic characteristics were evaluated.
54 of C57 mice (female) were equally divided into 6 groups, which were purchased from Shanghai Jiesijie Laboratory Animal Co., Ltd., with the animal production license number: SOCK (Shanghai) 2013-0006.
A certain amount of compound was weighted, followed by the addition of 5% volume of DMSO and 5% Tween 80 to dissolve it, then followed by the addition of 90% normal saline to prepare a colorless and clear solution of 0.1 mg/mL.
After an overnight fast, C57 mice were intragastrically administered the test compound at an administration dose of 2 mg/kg and an administration volume of 0.2 ml/10 g.
The mice were intragastrically administered the test compounds. 0.1mL of blood was taken before the administration and at 0.25, 0.5, 1.0, 2.0, 4.0, 6.0, 8.0, 11.0, 24.0 hours after the administration. The blood was placed in a heparinized test tube, and centrifuged at 3500 rpm for 10 minutes. The plasma was separated and stored at −20° C.
The content of the test compound in the plasma of mice after […] administration of the test compound at different concentrations was determined: 25 μl of mouse plasma at each time point after the administration was taken, followed by the addition of 50 μl of the internal standard camptothecin solution (100 ng/mL) and 200 μl of acetonitrile. The resulting solution was vortex-mixed for 5 minutes, and centrifuged for 10 minutes (4000 rpm). 4μl of the supernatant was taken from the plasma samples for LC/MS/MS analysis.

T1 sequence (P28482 whole entry): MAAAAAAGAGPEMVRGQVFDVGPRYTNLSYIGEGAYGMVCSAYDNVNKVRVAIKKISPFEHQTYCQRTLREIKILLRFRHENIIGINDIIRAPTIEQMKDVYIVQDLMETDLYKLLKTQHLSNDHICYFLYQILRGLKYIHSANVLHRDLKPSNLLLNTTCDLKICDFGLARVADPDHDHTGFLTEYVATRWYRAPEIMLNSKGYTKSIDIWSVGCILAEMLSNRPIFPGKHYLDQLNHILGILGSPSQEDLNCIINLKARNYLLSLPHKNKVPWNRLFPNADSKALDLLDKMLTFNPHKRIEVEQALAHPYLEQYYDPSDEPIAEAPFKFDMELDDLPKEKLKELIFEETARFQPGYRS

| SMILES | IC50 (ERK2) | IC50 (Colo205 cells) | further results |
| --- | --- | --- | --- |
| O=C(CN1CCc2sc(-c3nc(NC4CCOCC4)ncc3Cl)cc2C1=O)N[C@H](CO)c1cccc(Cl)c1 [Example 1, (S)-2-(2-(5-Chloro-2-((tetrahydro-2H-pyran-4-yl)amino)pyrimidin-4-yl)-4-oxo-6,7-dihydrothieno[3,2-c]pyridin-5(4H)-yl)-N-(1-(3-chlorophenyl)-2-hydroxyethyl)acetamide] | 0.001 µM | 0.008 µM | – |
| CC1(C)c2sc(-c3nc(NC4CCOCC4)ncc3Cl)cc2C(=O)N1CC(=O)N[C@H](CO)c1cccc(Cl)c1 [Example 2, (S)-2-(2-(5-Chloro-2-((tetrahydro-2H-pyran-4-yl)amino)pyrimidin-4-yl)-6,6-dimethyl-4-oxo-4,6-dihydro-5H-thieno[2,3-c]pyrrol-5-yl)-N-(1-(3-chlorophenyl)-2-hydroxyethyl)acetamide] | 0.003 µM | – | – |
| Cc1cccc([C@@H](CO)NC(=O)[C@H](C)N2CCc3sc(-c4nc(NC5CCOCC5)ncc4Cl)cc3C2=O)c1 [Example 3-P1, (S)-2-(2-(5-Chloro-2-((tetrahydro-2H-pyran-4-yl)amino)pyrimidin-4-yl)-4-oxo-6,7-dihydrothieno[3,2-c]pyridin-5(4H)-yl)-N-((S)-2-hydroxy-1-(m-methylphenyl)ethyl)propionamide] | 0.203 µM | – | – |
| Cc1cccc([C@@H](CO)NC(=O)[C@@H](C)N2CCc3sc(-c4nc(NC5CCOCC5)ncc4Cl)cc3C2=O)c1 [Example 3-P2, (R)-2-(2-(5-Chloro-2-((tetrahydro-2H-pyran-4-yl)amino)pyrimidin-4-yl)-4-oxo-6,7-dihydrothieno[3,2-c]pyridin-5(4H)-yl)-N-((S)-2-hydroxy-1-(m-methylphenyl)ethyl)propionamide] | 0.004 µM | 0.026 µM | Vd/F [1]: 2.98 L/kg; AUC [1]: 0.914 µg·h/mL; CL/F [1]: 2.19 L/h/kg; half-life [1]: 0.945 h; Cmax [1]: 0.708 µg/mL; MRT [1]: 1.16 h |
| C[C@@H](C(=O)N[C@H](CO)c1cccc(Cl)c1)N1CCc2sc(-c3nc(NC4CCOCC4)ncc3Cl)cc2C1=O [Example 4-P1, (S)-2-(2-(5-Chloro-2-((tetrahydro-2H-pyran-4-yl)amino)pyrimidin-4-yl)-4-oxo-6,7-di hydrothieno[3,2-c]pyridin-5(4H)-yl)-N-((S)-1-(3-chlorophenyl)-2-hydroxyethyl)propionamide] | 0.434 µM | – | – |
| C[C@H](C(=O)N[C@H](CO)c1cccc(Cl)c1)N1CCc2sc(-c3nc(NC4CCOCC4)ncc3Cl)cc2C1=O [Example 4-P2] | 0.006 µM | 0.029 µM | Vd/F [1]: 8.09 L/kg; AUC [1]: 0.364 µg·h/mL; CL/F [1]: 5.49 L/h/kg; half-life [1]: 1.02 h; Cmax [1]: 0.376 µg/mL; MRT [1]: 1.14 h |
| CC(C(=O)N[C@H](CO)c1cccc(Cl)c1)N1C(=O)c2cc(-c3nc(NC4CCOCC4)ncc3Cl)sc2C1(C)C (stereo partly drawn) [Example 5, 2-(2-(5-Chloro-2-((tetrahydro-2H-pyran-4-yl)amino)pyrimidin-4-yl)-6,6-dimethyl-4-oxo-4,6-dihydro-5H-thieno[2,3-c]pyrrol-5-yl)-N-((S)-1-(3-chlorophenyl)-2-hydroxyethyl)propionamide] | 0.022 µM | – | – |
| O=C(CN1CCc2sc(-c3ccnc(NC4CCOCC4)n3)cc2C1=O)N[C@H](CO)c1cccc(Cl)c1 [Example 6, (S)-N-(1-(3-Chlorophenyl)-2-hydroxyethyl)-2-(4-oxo-2-(2-((tetrahydro-2H-pyran-4-yl)amino)pyrimidin-4-yl)-6,7-dihydrothieno[3,2-c]pyridin-5(4H)-yl)acetamide] | 0.029 µM | – | – |
| Cc1cccc([C@@H](CO)NC(=O)CN2CCc3sc(-c4nc(Nc5ccnn5C)ncc4C)cc3C2=O)c1 [Example 7, (S)-N-(2-Hydroxy-1-(m-methylphenyl)ethyl)-2-(2-(5-methyl-2-((1-methyl-1H-pyrazol-5-yl)amino)pyrimidin-4-yl)-4-oxo-6,7-dihydrothieno[3,2-c]pyridin-5(4H)-yl)acetamide] | 0.003 µM | 0.038 µM | – |
| COc1cc(F)cc([C@@H](CO)NC(=O)[C@H](C)N2CCc3sc(-c4nc(NC5CCOCC5)ncc4Cl)cc3C2=O)c1 [Example 9-P1, (S)-2-(2-(5-Chloro-2-((tetrahydro-2H-pyran-4-yl)amino)pyrimidin-4-yl)-4-oxo-6,7-dihydrothieno[3,2-c]pyridin-5(4H)-yl)-N-((S)-1-(3-fluoro-5-methoxyphenyl)-2-hydroxyethyl)prop ionamide] | 0.41 µM | – | – |
| Cc1cccc([C@@H](CO)NC(=O)[C@@H](C)N2CCc3sc(-c4nc(N[C@@H](C)CO)ncc4Cl)cc3C2=O)c1 [Example 13, (R)-2-(2-(5-Chloro-2-(((S)-1-hydroxypropan-2-yl)amino)pyrimidin-4-yl)-4-oxo-6,7-dihydrothieno[3,2-c]pyridin-5(4H)-yl)-N-((S)-2-hydroxy-1-(m-methylphenyl)ethyl)propionamide] | 0.009 µM | 0.026 µM | – |
